Data taken from US4649156A, “6-nitroprostaglandin derivatives” (Teijin Limited, priority 1982, dated 1987).
≈ marks a conversion by molar mass, not a printed value.

Experiments:
platelet aggregation = experiment: In vitro inhibitory activity of platelet aggregation (ADP-induced, platelet-rich plasma); assay type: cell-based, rabbit (Japanese domestic white male rabbits); details: Oryctolagus cuniculus, rabbit PRP, 10 μM (final) ADP, pre-incubated at 37° C. for 2 minutes, read-out: IC50 (minimum concentration of the drug which inhibited more than 50% of platelet aggregation)
Protocol: The in vitro platelet aggregation imhibiting activity of the compounds of the invention were examined by using rabbits. Blood was withdrawn from the ear vein of Japanese domestic white male rabbits weighing 2.5 to 3.5 kg. A mixture of a 3.8% trisodium citrate solution and the blood in a ratio of 1:9 was centrifuged at a speed of 1000 rpm for 10 minutes. The upper layer was separated as platelet-rich plasma (PRP). The lower layer was further centrifuged at a speed of 28000 rpm for 10 minutes. The upper layer was separated as platelet-poor plasma (PPP). The number of platelets was adjusted to 6×10^5 /μl to 7×10^5 […] by diluting the PRP with PPP. 25 microliters of the test compounds prepared as shown below was added in an amount of 25 to 250 microliters of PRP after the adjustment, and the mixture was pre-incubated at 37° C. for 2 minutes, and then 10 μM (final) of ADP was added. By using an aggregometer, changes in transmission were recorded.
The drug was dissolved in ethanol to a concentration of 10 mg/ml, and successively diluted with phosphate buffer (pH 7.4) prior to use.
The rate of inhibition of platelet aggregation was determined from the following equation. [formula] To : the transmittance of the system containing the phosphate buffer, T: The transmittance of the system to which the test drug was added. […]

[1] = tested on: blood pressure and heart beat rate of rats; experiment: Measurement of the hypotensive activity (blood pressure and heart beat rate, i.v., anesthetized rats); assay type: in vivo, rat (male wister rats); details: Rattus norvegicus, iv, urethane/α-chloralose anesthesia; for ED10: read-out: H-ED10 (dosage which caused a 10% increase of the heart rate); for ED20: read-out: P-ED20 (dosage which caused a 20% lowering of the mean blood pressure)
Protocol: Measurement of the Hypotensive Activity
The actions of the 6-nitroprostaglandin E1 derivatives of the invention on the blood pressure and heart beat rate of rats were examined by intravenous injection under anesthesia.
Male wister rats weighing about 250 g were used. Urethane (500 mg/kg) and α-chloralose (100 mg/kg) were intraperitoneally administered to the rats. The rats were anesthetized and fixed in place.
Each of the test compounds was dissolved in a small amount of ethanol and diluted with physiological saline to adjust the final ethanol concentration to not more than 5%. The solution was intravenously injected into the rats through a catheter inserted into the femoral vein.
The blood pressure of the rats were measured by a pressure transducer through a catheter inserted into the carotid artery of the rats. The heart beat rate was determined from the blood pressure pulse.
The action of the test compound on the blood pressure was expressed as the dosage (p-EDz20, μg/kg) of the test compound which caused a 20% lowering of the mean blood pressure before administration of the compound. The action of the test compound on the heart rate was expressed as the dosage (H-ED10, μg/kg) of the test compound which caused a 10% increase of the heart rate from the heart beat rate before administration of the test compound.

indomethacin ulcer = experiment: Measurement of inhibitory activity on indomethacin ulcer; assay type: in vivo, rat (wistar-strain male rats); details: indomethacin 20 mg/kg oral, n=8
Protocol: Seven week-oil wistar-strain male rats (body weight 200 to 220 g) were fasted for 24 hours but water was provided freely, and then used in the following experiment.
Each of the test compounds suspended in phosphate Buffers (pH 7.4) was orally administered to the rats, and 30 minutes later, indomethacin was orally administered in a dose of 20 mg/kg. Six hours later, the animals were sacrificed. The abdomen was cut open, and the stomach was removed. 1% Even's blue was injected in an amount of 0.5 ml/rat into the rats through the tail vein under ether anesthesia 10 minutes before sacrificing.
12 ml of a 1% formalin was injected into the stomach and the stomach was further dipped in 1% formaline for about 10 minutes for the fixation. The stomach was cut open on the side of the greater curvature, and spread on a glass plate. The lengths of ulcers generated in the glandular stomach were measured by using a solid microscope. The sum of the lengths of the ulcers for each nimal was used as the ulcer index. The ulcer inhibiting ratio of the test compound was calculated in accordance with the following equation. [formula]
The control group was given phosphate buffer saline (pH 7.4) indomethacin alone.

Row | IC50 (platelet aggregation) | SMILES | ED10 [1] | ED20 [1] | Inhibition (ulcer inhibiting ratio) (indomethacin ulcer; 3 μg/kg oral) | Ulcer index (indomethacin ulcer; 3 μg/kg oral) | Inhibition (ulcer inhibiting ratio) (indomethacin ulcer; 10 μg/kg oral) | Ulcer index (indomethacin ulcer; 10 μg/kg oral) | Inhibition (ulcer inhibiting ratio) (indomethacin ulcer; 30 μg/kg oral) | Ulcer index (indomethacin ulcer; 30 μg/kg oral, **P < 0.01)
1 | 4.5 µg/mL (≈ 10.9 µM) | CCCCC[C@H](O)/C=C/[C@H]1[C@H](O)CC(=O)[C@@H]1CC(CCCCC(=O)OC)[N+](=O)[O-] (stereo partly drawn) [6-nitroprostaglandin E1 methyl ester] | > 0.01 mg/kg | 0.01 mg/kg |  |  |  |  |  | 
2 | 0.017 µg/mL (≈ 0.0385 µM) | CCCC[C@H](C)C[C@H](O)/C=C/[C@H]1[C@H](O)CC(=O)[C@@H]1CC(CCCCC(=O)OC)[N+](=O)[O-] (stereo partly drawn) [17(S),20-dimethyl-6-nitroprostaglandin E1 methyl ester] | > 0.01 mg/kg | 0.0004 mg/kg | 12.6% | 12.5 ± 3.2 mm | 51.0% | 7.0 ± 1.8 mm | 80.4% | 2.8 ± 1.2 mm
